Read-outs that look alike come from different tables or passages of the source.
Biological target: b-Raf (V600E) (Homo sapiens (Human), UniProt P15056, V600E)
Conditions: read-out: b-Raf IC-50, AlphaScreen
[1] = 60 min pre-incubation, 3 hours reaction
[2] = 60 min pre-incubation, reaction 3 hours at room temperature

b-Raf (V600E), sequence (P15056 whole entry V600E): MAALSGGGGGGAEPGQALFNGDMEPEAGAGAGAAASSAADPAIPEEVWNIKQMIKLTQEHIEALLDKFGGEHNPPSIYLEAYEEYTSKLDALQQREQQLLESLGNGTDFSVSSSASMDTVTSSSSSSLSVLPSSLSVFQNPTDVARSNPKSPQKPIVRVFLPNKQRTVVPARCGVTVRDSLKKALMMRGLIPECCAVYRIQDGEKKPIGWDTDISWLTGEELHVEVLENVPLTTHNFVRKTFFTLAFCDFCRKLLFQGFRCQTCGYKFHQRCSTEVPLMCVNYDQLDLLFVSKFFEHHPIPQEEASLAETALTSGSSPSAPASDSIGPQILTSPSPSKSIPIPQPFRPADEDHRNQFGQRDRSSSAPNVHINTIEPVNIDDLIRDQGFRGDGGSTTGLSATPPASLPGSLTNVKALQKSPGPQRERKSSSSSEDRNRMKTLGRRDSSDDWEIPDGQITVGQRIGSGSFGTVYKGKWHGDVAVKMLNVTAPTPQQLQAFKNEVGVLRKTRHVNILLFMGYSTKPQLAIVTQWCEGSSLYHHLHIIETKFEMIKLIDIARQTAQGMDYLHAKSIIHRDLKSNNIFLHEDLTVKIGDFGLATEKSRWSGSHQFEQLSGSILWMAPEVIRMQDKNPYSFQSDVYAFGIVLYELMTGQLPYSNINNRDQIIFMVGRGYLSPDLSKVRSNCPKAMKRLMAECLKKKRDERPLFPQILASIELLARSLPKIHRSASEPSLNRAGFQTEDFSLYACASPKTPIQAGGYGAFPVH

**Q.** For `CCOc1nnc(-c2cc(NC(=O)c3ccc(CO)c(C(F)(F)F)c3)cnc2C)cc1N1CCOCC1` [Example 627, N-(5-(6-ethoxy-5-morpholinopyridazin-3-yl)-6-methylpyridin-3-yl)-4-(hydroxymethyl)-3-(trifluoromethyl)benzamide], which IC50 [1] is on record?
**A.** 3.7 nM

**Q.** Which IC50 (Table 2, 3 hours reaction) does the source give for `CCN1CCN(c2cc(C(=O)Nc3ccc(C)c(-c4cc(N5CCOCC5)nc(N5CCOCC5)n4)c3)cc(C(F)(F)F)c2)CC1` [Example 21, N-(3-(2,6-dimorpholinopyrimidin-4-yl)-4-methylphenyl)-3-(4-ethylpiperazin-1-yl)-5-(trifluoromethyl)benzamide] here?
**A.** 4 nM

**Q.** For `CCNc1nc(-c2cc(NC(=O)c3ccnc(C(C)(C)C#N)c3)ccc2C)cc(N2CCOC[C@@H]2C)n1` [Example 714, (S)-2-(2-cyanopropan-2-yl)-N-(3-(2-(ethylamino)-6-(3-methylmorpholino)pyrimidin-4-yl)-4-methylphenyl)isonicotinamide], which IC50 [1] is on record?
**A.** 2.5 nM

**Q.** `Cn1c(N2CCOCC2)cc(-c2cc(NC(=O)c3ccnc(C(C)(F)F)c3)cnc2Cl)cc1=O` [Example 513, N-(2-chloro-1′-methyl-6′-morpholino-2′-oxo-1′,2′-dihydro-[3,4′-bipyridin]-5-yl)-2-(1,1-difluoroethyl)isonicotinamide] was tested. Which IC50 [1] did it give?
**A.** 2.4 nM

**Q.** `Cc1ncc(NC(=O)c2cccc(C(F)(F)F)c2)cc1-c1cnc(OC(F)F)c(N2CCOCC2)c1` [Example 224, N-(6′-(difluoromethoxy)-2-methyl-5′-morpholino-[3,3′-bipyridin]-5-yl)-3-(trifluoromethyl)benzamide] was tested. Which IC50 (Table 2, 3 hours reaction) did it give?
**A.** 2.7 nM

**Q.** `Cc1ccc(NC(=O)c2cnnc(C(F)(F)F)c2)cc1-c1cc(N2CCOCC2)c(=O)n(C)c1` [Example 361, N-(4-methyl-3-(1-methyl-5-morpholino-6-oxo-1,6-dihydropyridin-3-yl)phenyl)-6-(trifluoromethyl)pyridazine-4-carboxamide] was tested. Which IC50 (Table 2, 3 hours reaction) did it give?
**A.** 2.8 nM

**Q.** For `Cc1ncc(NC(=O)c2ccnc(C(C)(F)F)c2)cc1-c1cc(N2CCOCC2)c(OCC(F)F)nn1` [Example 915, N-(5-(6-(2,2-difluoroethoxy)-5-morpholinopyridazin-3-yl)-6-methylpyridin-3-yl)-2-(1,1-difluoroethyl)isonicotinamide], which IC50 [2] is on record?
**A.** 1.11 nM

**Q.** `Cc1ncc(NC(=O)c2ccnc(C(C)(C)O)c2)cc1-c1cc(N2CCOCC2)nc(N2CC(O)C2)c1` [Example 1082, N-(2′-(3-hydroxyazetidin-1-yl)-2-methyl-6′-morpholino-[3,4′-bipyridin]-5-yl)-2-(2-hydroxypropan-2-yl)isonicotinamide] was tested. Which IC50 [2] did it give?
**A.** 58.2 nM

**Q.** `Cc1ncc(NC(=O)c2ccnc(C(F)(F)F)c2)cc1-c1cc(NCCO)nc(N2CCOC[C@H]2C)c1` [Example 1140, (R)—N-(2′-((2-hydroxyethyl)amino)-2-methyl-6′-(3-methylmorpholino)-[3,4′-bipyridin]-5-yl)-2-(trifluoromethyl)isonicotinamide] was tested. Which IC50 [2] did it give?
**A.** 13.4 nM

**Q.** For `Cc1ccc(NC(=O)[C@@H]2CCN[C@H](C(F)(F)F)C2)cc1-c1cc(C2COCCO2)nc(N2CCOCC2)c1` (stereo in doubt) [Example 1132, N-(3-(2-(1,4-dioxan-2-yl)-6-morpholinopyridin-4-yl)-4-methylphenyl)-2-(trifluoromethyl)piperidine-4-carboxamide], which IC50 [2] is on record?
**A.** 270 nM

**Q.** `CCOc1ncc(-c2cc(NC(=O)c3ccnc(S(C)(=O)=O)c3)cnc2C)cc1N1CCOCC1` [Example 243, N-(6′-ethoxy-2-methyl-5′-morpholino-[3,3′-bipyridin]-5-yl)-2-(methylsulfonyl)isonicotinamide] was tested. Which IC50 (Table 2, 3 hours reaction) did it give?
**A.** 5.3 nM

**Q.** With `Cc1ncc(NC(=O)c2ccnc(C(C)(C)F)c2)cc1-c1cc(N2CCOCC2)c(OC(C)C)nn1` [Example 911, 2-(2-fluoropropan-2-yl)-N-(5-(6-isopropoxy-5-morpholinopyridazin-3-yl)-6-methylpyridin-3-yl)isonicotinamide] as the compound, how does the IC50 [2] read?
**A.** 3.58 nM

**Q.** Which IC50 [2] does the source give for `Cc1ccc(NC(=O)c2ccnc(C(C)(C)C#N)c2)cc1-c1cc(NC[C@@H](C)O)nc(N2CCOCC2)n1` [Example 1026, (R)-2-(2-cyanopropan-2-yl)-N-(3-(6-((2-hydroxypropyl)amino)-2-morpholinopyrimidin-4-yl)-4-methylphenyl)isonicotinamide] here?
**A.** 12.9 nM

**Q.** For `Cc1ccc(NC(=O)c2ccnc(C3COC3)c2)cc1-c1cc(N2CCOCC2)c(=O)n(C)c1` [Example 356, N-(4-methyl-3-(1-methyl-5-morpholino-6-oxo-1,6-dihydropyridin-3-yl)phenyl)-2-(oxetan-3-yl)isonicotinamide], which IC50 (Table 2, 3 hours reaction) is on record?
**A.** 3.9 nM

**Q.** With `Cc1ncc(NC(=O)c2cnnc(C(F)(F)F)c2)cc1-c1cc(NCCO)nc(N2CCOCC2)c1` [Example 1051, N-(2′-((2-hydroxyethyl)amino)-2-methyl-6′-morpholino-[3,4′-bipyridin]-5-yl)-6-(trifluoromethyl)pyridazine-4-carboxamide] as the compound, how does the IC50 [2] read?
**A.** 8.19 nM

**Q.** How did the IC50 [1] turn out when `CCNc1nc(-c2cc(NC(=O)c3ccnc(C(F)F)c3)cnc2C)cc(N2CCOCC2)n1` [Example 721, 2-(difluoromethyl)-N-(5-(2-(ethylamino)-6-morpholinopyrimidin-4-yl)-6-methylpyridin-3-yl)isonicotinamide] was run?
**A.** 3.3 nM

**Q.** How did the IC50 (Table 2, 3 hours reaction) turn out when `Cc1ncc(NC(=O)c2ccnc(C(C)(C)C#N)c2)cc1-c1cnc(N(C)C)c(N2CCOCC2)c1` [Example 265, 2-(2-cyanopropan-2-yl)-N-(6′-(dimethylamino)-2-methyl-5′-morpholino-[3,3′-bipyridin]-5-yl)isonicotinamide] was run?
**A.** 4.5 nM

**Q.** `CCNc1nc(-c2cc(NC(=O)c3ccnc(C4COC4)c3)cnc2C)cc(N2CCOCC2)n1` [Example 729, N-(5-(2-(ethylamino)-6-morpholinopyrimidin-4-yl)-6-methylpyridin-3-yl)-2-(oxetan-3-yl)isonicotinamide] was tested. Which IC50 [1] did it give?
**A.** 17.7 nM

**Q.** With `CCNc1nc(-c2cc(NC(=O)c3cccc(C(F)F)c3)cnc2C)cc(N2CCOCC2)n1` [Example 722, 3-(difluoromethyl)-N-(5-(2-(ethylamino)-6-morpholinopyrimidin-4-yl)-6-methylpyridin-3-yl)benzamide] as the compound, how does the IC50 [1] read?
**A.** 1.6 nM

**Q.** Which IC50 (Table 2, 3 hours reaction) does the source give for `Cc1ncc(NC(=O)c2cccc(C(F)(F)F)c2)cc1-c1cnc(OC2CC3(COC3)C2)c(N2CCOCC2)c1` [Example 322, N-(6′-(2-oxaspiro[3.3]heptan-6-yloxy)-2-methyl-5′-morpholino-[3,3′-bipyridin]-5-yl)-3-(trifluoromethyl)benzamide] here?
**A.** 1.1 nM

**Q.** Which IC50 (Table 2, 3 hours reaction) does the source give for `Cc1ncc(NC(=O)c2cccc(C(F)(F)F)c2)cc1-c1cnc(OC2COC2)c(N2CCOCC2)c1` [Example 315] here?
**A.** 0.8 nM

**Q.** How did the IC50 [1] turn out when `Cc1ncc(NC(=O)c2ccnc(C(C)(C)F)c2)cc1-c1cc(N2CCOCC2)c(=O)n(C)n1` [Example 677, 2-(2-fluoropropan-2-yl)-N-(6-methyl-5-(1-methyl-5-morpholino-6-oxo-1,6-dihydropyridazin-3-yl)pyridin-3-yl)isonicotinamide] was run?
**A.** 12.7 nM

**Q.** For `Cc1ccc(NC(=O)c2ccnc(S(C)(=O)=O)c2)cc1-c1cc(N2CCOCC2)nc(N2CCOCC2)c1` [Example 1118, N-(3-(2,6-dimorpholinopyridin-4-yl)-4-methylphenyl)-2-(methylsulfonyl)isonicotinamide], which IC50 [2] is on record?
**A.** 1.02 nM

**Q.** Which IC50 [2] does the source give for `Cc1ncc(NC(=O)c2ccnc(C3CC3)c2)cc1-c1cc(NCCO)nc(N2CCOCC2)c1` [Example 1057, 2-cyclopropyl-N-(2′-((2-hydroxyethyl)amino)-2-methyl-6′-morpholino-[3,4′-bipyridin]-5-yl)isonicotinamide] here?
**A.** 4.12 nM

**Q.** Which IC50 [2] does the source give for `Cc1ccc(NC(=O)c2ccnc(C(F)(F)F)c2)cc1-c1cc(NCC2CCOC2)nc(N2CCOCC2)c1` (stereo not drawn) [Example 1055, N-(4-methyl-3-(2-morpholino-6-(((tetrahydrofuran-3-yl)methyl)amino)pyridin-4-yl)phenyl)-2-(trifluoromethyl)isonicotinamide] here?
**A.** 1.17 nM

**Q.** Which IC50 [1] does the source give for `CCNc1nc(-c2cc(NC(=O)c3ccnc(C4(C#N)CC4)c3)cnc2C)cc(N2CCOCC2)n1` [Example 728, 2-(1-cyanocyclopropyl)-N-(5-(2-(ethylamino)-6-morpholinopyrimidin-4-yl)-6-methylpyridin-3-yl)isonicotinamide] here?
**A.** 4.4 nM

**Q.** How did the IC50 [2] turn out when `Cc1ncc(NC(=O)c2ccnc(C(C)(C)F)c2)cc1-c1cc(N2CCOCC2)c(S(C)(=O)=O)nn1` [Example 927, 2-(2-fluoropropan-2-yl)-N-(6-methyl-5-(6-(methylsulfonyl)-5-morpholinopyridazin-3-yl)pyridin-3-yl)isonicotinamide] was run?
**A.** 7.91 nM

**Q.** For `Cc1ccc(NC(=O)c2cccc(C(F)F)c2)cc1-c1cc(N2CCOCC2)c(=O)n(C)n1` [Example 190, 3-(difluoromethyl)-N-(4-methyl-3-(1-methyl-5-morpholino-6-oxo-1,6-dihydropyridazin-3-yl)phenyl)benzamide], which IC50 (Table 2, 3 hours reaction) is on record?
**A.** 2.2 nM

**Q.** How did the IC50 [2] turn out when `Cc1ccc(NC(=O)c2ccnc(C3CC3)c2)cc1-c1cc(OCCO)nc(N2CCOCC2)c1` [Example 1157, 2-cyclopropyl-N-(3-(2-(2-hydroxyethoxy)-6-morpholinopyridin-4-yl)-4-methylphenyl)isonicotinamide] was run?
**A.** 0.43 nM

**Q.** For `Cc1ccc(NC(=O)c2cccc(CC#N)c2)cc1-c1cc(N2CCOCC2)c(=O)n(C)c1` [Example 359, 3-(cyanomethyl)-N-(4-methyl-3-(1-methyl-5-morpholino-6-oxo-1,6-dihydropyridin-3-yl)phenyl)benzamide], which IC50 (Table 2, 3 hours reaction) is on record?
**A.** 5.5 nM

**Q.** `CCOc1ncc(-c2cc(NC(=O)c3ccnc(C(C)C)c3)cnc2C)cc1N1CCOCC1` [Example 252, N-(6′-ethoxy-2-methyl-5′-morpholino-[3,3′-bipyridin]-5-yl)-2-isopropylisonicotinamide] was tested. Which IC50 (Table 2, 3 hours reaction) did it give?
**A.** 3.1 nM

**Q.** For `Cn1cc(-c2cc(NC(=O)c3cccc(C(F)F)c3)ccc2C#N)cc(N2CCOCC2)c1=O` [Example 420, N-(4-cyano-3-(1-methyl-5-morpholino-6-oxo-1,6-dihydropyridin-3-yl)phenyl)-3-(difluoromethyl)benzamide], which IC50 (Table 2, 3 hours reaction) is on record?
**A.** 3600 nM

**Q.** Which IC50 (Table 2, 3 hours reaction) does the source give for `Cc1ccc(NC(=O)c2cnnc(C3CC3)c2)cc1-c1cc(N2CCOCC2)c(=O)n(C)c1` [Example 362, 6-cyclopropyl-N-(4-methyl-3-(1-methyl-5-morpholino-6-oxo-1,6-dihydropyridin-3-yl)phenyl)pyridazine-4-carboxamide] here?
**A.** 2.9 nM

Reference: patent US9694016B2 (Novartis AG, priority 2013, dated 2017)
